Test results from patent publication US20230104487A1, “11-(4-CHLOROPHENYL)-4-(2,3-DIHYDRO-1H-INDOLE-1-CARBONYL)-3,11-DIMETHYL-5,10,DIOXATRICYCLO[7.4.0.0,2,6,]TRIDECA-1,3,6,8-TETRAEN-13-ONE AND DERIVATIVES AS DESTABILIZER OF CRY1 FOR THE TREATMENT OF CIRCADIAN RHYTHM ASSOCIATED DISEASES AND DISORDERS” (KOC UNIVERSITESI, priority 2019, published 2023).
Entries after “also recorded” stand apart in the source; their conditions may differ.

Columns and labels:
Per2 = Per2 mRNA in mouse liver (qPCR); type: in vivo; settings: 25 and 50 mg/kg i.p., 6 h
Experimental: FIGS. 5A-5G are an illustration of FORMULA I decreased the nuclear CRY1 in mice liver. FORMULA I (25 mg/kg or 50 mg/kg) or vehicle intraperitoneally administered to C57BL/6J mice. 6 h after the treated mice were sacrificed (n=3). […] FIGS. 5A-5B show an effect of FORMULA I in WCL. FIG. 5C-5D show an effect of FORMULA I in cytosolic fraction. FIGS. 5E-5F show an effect of FORMULA I in nuclear fraction of muce liver. […] (Data represent the mean±SEM, n=3 (with duplicates in RT-PCR) *: p<0.05 versus control by student t-test).
QIAGEN RNeasy Mini Kit was used to isolate the mRNA. Protocol provided by the manufacturer was followed. On-column DNase treatment was performed with the DNase enzyme provided with the kit. […] Quantity of RNA was determined by Nanodrop 2000 (Thermo Scientific). […] For quantitative real time PCR (qRT-PCR) analysis cDNAs were further diluted 5-fold (1:5). mRNA expression levels were calculated by qRT-PCR with the SYBR Green. […] 10 seconds denaturation, 57 to 62° C. for 20 seconds annealing (the degree is determined by primer type) and 72° C. for 30 seconds of elongation, 35 cycles. […]
Since CRYs are stabilized and degraded differently in cytosolic and nuclear compartments, we further analyzed the level of CRY1 in the cytosolic and nuclear fraction of the mouse liver. […]

[1] = tested on: Ras transformed p53-null MEF cell line; test: Apoptosis assay (PARP cleavage) with oxaliplatin; type: cell-based, mouse; settings: 0, 10 or 20 μM oxaliplatin followed by FORMULA I
Experimental: FIGS. 6A-6B are an illustration of FORMULA I enhanced the effect of oxalipilatin in p53 null MSF cells. Ras pT24 transformed p53 null MSF fibroblast cells were treated with 0, 10 or 20 μM oxaliplatin and incubated for 24 h. Then either DMSO or FORMULA I was added and incubated for 16 h. Cells were lysed and analyzed via protein immunoblot technique. […] Bar graph was drawn normalizing to 10 μM dosage of oxaliplatin (Data represent the mean±SEM, n=4 **: p<0.005, * p<0.05 versus DMSO control by two-way ANOVA).
In previous studies it was reported that […] mutation sensitizes the Ras transformed p53-null cells, but not cells with wild-type p53, to apoptosis induced by UV or UV mimetic agents e.g oxaliplatin. Using fibroblasts isolated from the skin of Cry1^−/−Cry2^−/−p53^−/− and p53^−/− mice, it has been shown that Cry deletion on the p53-null background sensitized the cells to bulky-DNA adduct-induced apoptosis (Lee and Sancar, 2011). With the expectation that FORMULA I would destabilize CRY1 and increase the effectiveness of UV mimetic chemotherapeutic agents, we performed apoptosis assay with Ras transformed p53-null MEF cell lines. In this assay, cells were treated by increasing dose of oxaliplatin for 16 h followed by FORMULA I treatment for 24 h and probed for apoptosis by measuring PARP cleavage. […]

LUC = LUC degradation control in HEK293T; type: cell-based, firefly
Description: To insert Cry1-Luc, Cry2-Luc constructs and only Luc into pcDNA4A-myc-his plasmid, coding sequence of mouse Cry1 and firefly Luciferase in pG5luc plasmid (Addgene) was amplified with primers having EcoRV-NotI and NotI-XhoI flanking sites for Crys and Luc, respectively. Product size was verified by visualizing in agarose gel and product was isolated from the gel by using NucleoSpin PCR and Gel purification kit (Macherey Nagel). pcDNA4A plasmid having Luc was double digested with NotI and XhoI and used as insert; Cry1 pcDNA4A-myc-his and Cry2 pcDNA4A-myc-his plasmids were double digested with NotI and XhoI FastDigest enzymes (Thermo Scientific) and used as host plasmids. Hosts were treated with FASTAP (Thermo Scientific) to prevent self-annealing. After gel isolation and cleaning inserts with Gel purification kit (Macherey Nagel) and destination vectors were ligated by using T4 DNA ligase (Thermo Scientific).
40 ng of Cry1-Luc, Cry2-Luc, mutant Cry1-Luc plasmids or 5 ng Luc plasmid were reverse transfected to 4×10^4 HEK293T cells on opaque 96-well plate with flat bottom via PEI transfection reagent. 24 h after transfection, cells were treated with molecules or solvent (DMSO). […] Luminescence readings were recorded every 10 min at 32° C. for 24 h. Half-life of protein was calculated via one-phase exponential decay fitting function in GraphPad Prism5 software. […]

## Cc1c(C(=O)N2CCc3ccccc32)oc2ccc3c(c12)C(=O)CC(C)(c1ccc(Cl)cc1)O3 (stereo not drawn) [FORMULA I, 11-(4-chlorophenyl)-4-(2,3-dihydro-1H-indole-1-carbonyl)-3,11-dimethyl-5,10,dioxatricyclo[7.4.0.0,2,6,]trideca-1,3,6,8-tetraen-13-one]
Per2
  Per2 mRNA level in liver: significantly increased; also recorded: increased the mRNA level of Per2
[1]
  oxaliplatin-induced apoptosis (cleaved PARP): sensitized Ras transformed p53-null MEF cell line to oxaliplatin-induced apoptosis; also recorded: increases the cleaved PARP protein level
LUC
  stability of LUC: no effect on the stability of LUC
